Data on 1 substance can be found in patent publication US20170216350A1, “COMPOSITIONS OF ALUMINUM FLUORIDE AND METHODS OF USE THEREOF FOR THE TREATMENT AND PREVENTION OF ACTINIC KERATOSIS AND SUN-INDUCED DAMAGES” (priority 2012, published 2017).

The assay has as its system actinic keratosis lesions. Particulars: twice daily. The text has this: A cream was applied on dry skin, on the whole forehead, twice daily. Aluminum fluoride at 0.30% w/w was used in a base cream containing Caprylic/Capric acids, sulfur, resorcinol, medium chain triglycerides, PEG 400, Pluronic F127, Ylang ylang oil and water .
Patient 2 is a person having actinic keratosis on their nose, in particular, two ulcers of about 1 mm each. The aluminum fluoride composition was at 0.30% w/w, and the base cream was modified to a cream containing deionized water, arachidyl alcohol, behenyl alcohol, arachidyl glucoside, montanoV 202, cetearyl alcohol, capric/caprilic triglyceride, isopropyl palmitate, steareth-2, dimethicon, steareth-20, allantoin, propylene glycol, Methylisothiazolinone (sheromix MT) and sodium benzoate.
A cream was applied on dry skin, on the cheek, twice daily. Aluminum fluoride at 0.30% w/w was used in a base cream containing Caprylic/Capric triglycerides, a polyethylene glycol component, hydrophilic non-ionic surfactant and purified water.
A cream was applied on dry skin, on the whole forehead, twice daily. Aluminum fluoride at 0.30% w/w was used in a base cream containing Caprylic/Capric triglycerides, a polyethylene glycol component, hydrophilic non-ionic surfactant and purified water.

Consider aluminum fluoride, for which, where the note is “Patient 1, 8th decade, 0.30% w/w in base cream (Caprylic/Capric acids, sulfur, resorcinol, MCT, PEG 400, Pluronic F127), whole forehead, 3 weeks”, the “actinic keratosis lesions (FIG. 1A/1B)” value was “gradual disappearance of lesions”. Besides, the “vascularization (FIG. 2(ii) compared to FIG. 2(i))” value (Patient 2, 0.30% w/w in modified base cream) is reported as “major decrease in vascularization”. For the same substance, the “actinic keratosis ulcers on nose (two ulcers of about 1 mm each)” value (Patient 2, 0.30% w/w in modified base cream, after approximately three weeks) is “closure of the first ulcer and disappearance of the second ulcer”. Besides, the “actinic keratosis lesions (FIG. 3A/3B)” value (Patient 6, 6th decade, 0.30% w/w in base cream (Caprylic/Capric triglycerides, polyethylene glycol component, non-ionic surfactant, water), cheek, 12 weeks) is listed as “disappearance of lesions”. Further, under “Patient 13, 6th decade, 0.30% w/w in base cream (Caprylic/Capric triglycerides, polyethylene glycol component, non-ionic surfactant, water), whole forehead, 10 weeks”, the “actinic keratosis lesions (FIG. 4A/4B)” value is “disappearance of lesions”.
